Reference: ChEMBL document CHEMBL3244194, “beta-Adrenoceptor blocking activity of halogenated thienylethanolamine derivatives” (J Med Chem, 1977)
The source made the active and inactive calls. The rule behind the calls is not given here.

Assays:
Rattus norvegicus [1] = assay: In vivo inhibition of beta-adrenoceptor in Wistar rat assessed as inhibition of isoproterenol-induced tachycardia at 4 mg/kg, iv relative to control; format: functional
Rattus norvegicus [2] = assay: In vivo inhibition of beta-adrenoceptor in Wistar rat assessed as decrease in heart rate at 4 mg/kg, iv relative to control; format: functional
[3] = Acute toxicity in iv dosed mouse; settings: in vivo
Felis catus [4] = assay: In vivo inhibition of beta-adrenoceptor in cat assessed as inhibition of isoproterenol-induced tachycardia at 0.1 mg/kg, iv relative to control; format: functional
Felis catus [5] = assay: In vivo inhibition of beta-adrenoceptor in cat assessed as inhibition of isoproterenol-induced tachycardia at 1 mg/kg, iv relative to control; format: functional
Felis catus [6] = assay: In vivo inhibition of beta-adrenoceptor in cat assessed as inhibition of isoproterenol-induced hypotension at 0.1 mg/kg, iv relative to control; format: functional
Felis catus [7] = assay: In vivo inhibition of beta-adrenoceptor in cat assessed as inhibition of isoproterenol-induced hypotension at 1 mg/kg, iv relative to control; format: functional
Cavia porcellus [8] = assay: In vivo inhibition of beta-adrenoceptor in histamine-treated guinea pig assessed as inhibition of isoproterenol-induced bronchodilator effect at 0.1 mg/kg, iv administered 3 mins prior to histamine/isoproterenol challenge relative to control; format: functional
Mus musculus [9] = assay: Local anesthetic activity in ICR Swiss mouse assessed as inhibition of pain reflex response at 0.5%, id relative to control; format: functional
Mus musculus [10] = assay: Local anesthetic activity in ICR Swiss mouse assessed as inhibition of pain reflex response at 1%, id relative to control; format: functional, organism-based
Felis catus [11] = assay: In vivo inhibition of beta-adrenoceptor in cat assessed as inhibition of isoproterenol-induced tachycardia at 0.05 mg/kg, iv relative to control; format: functional
Cavia porcellus [12] = assay: In vivo inhibition of beta-adrenoceptor in histamine-treated guinea pig assessed as inhibition of isoproterenol-induced bronchodilator effect at 0.01 mg/kg, iv administered 3 mins prior to histamine/isoproterenol challenge relative to control; format: functional, organism-based; design: dose 0.01 mg/kg

Row | SMILES | inhibition in vivo at 4 mg/kg (Rattus norvegicus [1]) [%] | inhibition in vivo at 4 mg/kg (Rattus norvegicus [2]) [%] | LD50 [3] [mg/kg] | inhibition in vivo at 0.1 mg/kg (Felis catus [4]) [%] | inhibition in vivo at 1 mg/kg (Felis catus [5]) [%] | inhibition in vivo at 0.1 mg/kg (Felis catus [6]) [%] | inhibition in vivo at 1 mg/kg (Felis catus [7]) [%] | inhibition in vivo at 0.1 mg/kg (Cavia porcellus [8]) [%] | inhibition (INH) (Mus musculus [9]) [%] | local anesthetic activity (active/inactive) (Mus musculus [10]) | inhibition in vivo at 0.05 mg/kg (Felis catus [11]) [%] | inhibition (Cavia porcellus [12])
1 | CC(C)NCC(O)c1sccc1Cl (racemic) | 0 | 0 | 38 | – | – | – | – | – | – | – | – | –
2 | CC(C)(C)NCC(O)c1sccc1Cl (racemic) | 0 | 0 | 25 | – | – | – | – | – | – | – | – | –
3 | CC(C)NCC(O)c1cc(Cl)cs1 (racemic) | 86 | 8 | 35 | 62 | 90 | 57 | 75 | – | – | – | – | –
4 | CC(C)(C)NCC(O)c1cc(Cl)cs1 (racemic) | 53 | 6 | 38 | – | – | – | – | – | – | – | – | –
5 | CC(C)NCC(O)c1sc(Cl)cc1Cl (racemic) | 70 | 28 | 35 | – | – | – | – | – | – | – | – | –
6 | CC(C)(C)NCC(O)c1sc(Cl)cc1Cl (racemic) | 75 | 32 | 30 | 65 | 74 | 55 | 65 | – | – | – | – | –
7 | CC(C)NCC(O)c1sc(Cl)c(Cl)c1Cl (racemic) | 90 | 20 | 35 | 58 | 100 | 52 | 85 | – | – | – | – | –
8 | CC(C)(C)NCC(O)c1sc(Cl)c(Cl)c1Cl (racemic) | 89 | 26 | 40 | 69 | 98 | 87 | 100 | 100 | 52 | Active | – | –
9 | CC(C)NCC(O)c1ccc(Br)s1.Cl (racemic) | 87 | 11 | 45 | 67.5 | 82 | 50 | 72 | – | 52 | Active | – | –
10 | CC(C)(C)NCC(O)c1ccc(Br)s1 (racemic) | 55.5 | 8 | 27 | – | – | – | – | – | – | – | – | –
11 | CC(C)NCC(O)c1sccc1Br (racemic) | 0 | 0 | 35 | – | – | – | – | – | – | – | – | –
12 | CC(C)(C)NCC(O)c1sccc1Br (racemic) | 12.5 | 10 | 25 | – | – | – | – | – | – | – | – | –
13 | CC(C)NCC(O)c1cc(Br)cs1 (racemic) | 89.5 | 11 | 42 | 70 | 90 | 53 | 82 | – | – | – | – | –
14 | CC(C)(C)NCC(O)c1cc(Br)cs1 (racemic) | 50 | 17 | 35 | 33 | 67 | 0 | 50 | 25 | – | – | – | –
15 | CC(C)NCC(O)c1cc(Br)c(Br)s1.Cl (racemic) | 100 | 25 | 45 | 92.5 | 100 | 75 | 100 | 40 | 72.5 | Active | 78 | inactive
16 | CC(C)(C)NCC(O)c1cc(Br)c(Br)s1 (racemic) | 92 | 18 | 38 | 87.5 | 100 | 58 | 95 | 100 | 100 | Active | 61 | –
17 | CC(C)NCC(O)c1sc(Br)cc1Br (racemic) | 77.5 | 14 | 35 | – | – | – | – | – | – | – | – | –
18 | CC(C)(C)NCC(O)c1sc(Br)cc1Br (racemic) | 78 | 17 | 42 | 50 | 88 | 45 | 89 | – | 82 | Active | – | –
19 | CC(C)NCC(O)c1scc(Br)c1Br.Cl (racemic) | 92 | 10 | 27 | – | – | – | – | – | – | – | – | –
20 | CC(C)(C)NCC(O)c1scc(Br)c1Br (racemic) | 95 | 36 | 28 | 53 | 92 | 64 | 97 | 100 | 75 | Active | – | –
21 | CC(C)NCC(O)c1sc(Br)c(Br)c1Br (racemic) | 75 | 10 | 35 | 50 | 95 | 65 | 88 | – | 40 | Active | – | –
22 | CC(C)(C)NCC(O)c1sc(Br)c(Br)c1Br (racemic) | 90 | 12 | 32 | 72.5 | 100 | 77.5 | 100 | – | – | – | – | –
23 | CC(C)NCC(O)COc1cccc2ccccc12 (stereo not given) [PROPRANOLOL] | 95 | 32 | – | 87 | 100 | 85 | 100 | 100 | 93 | Active | – | Active
